Assay results: article PMC6724197 (Journal of chemical ecology, 2018)

Tests used:
[1] = test system: mountain cottontails (Sylvilagus nuttallii); experiment: Two-choice feeding trial: single monoterpene diet vs monoterpene mixture diet; format: in vivo
[2] = test system: pygmy rabbits (Brachylagus idahoensis); experiment: as above; format: in vivo; conditions: for percentage of single monoterpene in the diet relative to monoterpene mixture: pygmy rabbits
digestive enzyme = conditions: in a generalist more than in a specialist avian folivore; ref Kohl et al. 2015; cited from earlier work

Row | SMILES | amount of single monoterpene diet consumed relative to monoterpene mixture [1] | amount of monoterpene mixture consumed relative to single monoterpene diet [1] | proportion consumed by pygmy rabbits relative to cottontails ([2]; pygmy rabbits vs mountain cottontails) | percentage of single monoterpene in the diet relative to monoterpene mixture [2] | effect on digestive enzyme activity (digestive enzyme)
1 | C=C1C2CCC(C2)C1(C)C (centres unmarked) [camphene] | more than five times | – | – | – | –
2 | C=C1CCC2CC1C2(C)C (stereo not drawn) [β-pinene] | – | three times | – | – | –
3 | CC12CCC(CC1=O)C2(C)C (centres unmarked) [camphor] | – | twice | twice | twice | reduced digestive enzyme activity
4 | CC12CCC(CC1)C(C)(C)O2 [1,8-cineole] | 24 times | – | – | twice | –
